Tests used:
Assay type in all cases: in vivo, Oriza sativa
[1] = test system: wild type plants (rice seedlings); assay: Germination of seeds on agar plates with or without brassinolide, wild type; settings: 1 μM brassinolide on agar plates, observed 1 day after germination
Procedure: (§1) Rice (Oriza sativa) seeds were soaked in distilled water and made to imbibe for 48 h at 30° C. After washing the seeds with distilled water several times, the seeds were germinated in a dark chamber at 30° C. for 8 days. Rice plants were grown in the field or in the greenhouse at 30° C. (day) and 24° C. (night).
(§2) Next, seeds of the wild type and mutant plants were germinated on agar plates with or without 1 μM brassinolide. The characteristics of whole seedlings were observed 1 day after germination.

[2] = test system: d61-1 and d61-2 mutant seedlings; assay: Germination of seeds on agar plates with or without brassinolide, d61 mutants; settings: 1 μM brassinolide on agar plates, observed 1 day after germination
Procedure: as §1, §2

wild type T65 plant = assay: Lamina joint test, wild type; settings: wild type T65, first leaf, 10^−3 and 10^−2 μg/ml
Excerpt: (§3) The degree of bending between the leaf blade and leaf sheath in rice is well known to be sensitive to the concentration of brassinolide or its related compounds. This unusual character of rice leaf is the basis for a quantitative bioassay for brassinosteroids, known as the lamina joint test (Wada, Ketal. (1981) Plant and Cell Physiol. 22, 323–325), even though the biological function of endogenous brassinosteroids in monocotyledonous plants including rice remains unknown. If the mutants are less sensitive to brassinosteroids, the degree of bending between the leaf blade and sheath of the mutant plants will be less than that of the wild type plants.
(§4) Lamina joints of first leave of wild type T65 plant (the background strain of the mutants), d61-1 mutant, and d61-2 mutant were tested with 10^−3 and 10^−2 μg/ml of brassinosteroids, respectively.

[3] = test system: d61-1 mutant and d61-2 mutant; assay: Lamina joint test, d61 mutants
Excerpt: as §3, §4

OsBRI1 mRNA = assay: Effect of exogenous brassinolide on the level of OsBRI1 mRNA (RNA hybridization); settings: light- and dark-grown seedlings, 0.9% agar plates with 1 μM brassinolide, six days
Excerpt: RNA was isolated from various rice tissues as described in literature (Chomczynski, P. and Sacchi, N.: Anal. Biochem. (1987) 162:156). Ten μg of total RNA were electrophoresed in a 1% agarose gel, then transferred to a Hybond N^+ membrane (Amersham), and analyzed by RNA gel blot hybridization. The present inventors used a partial cDNA fragment (Ser^740 to Asp^1116 corresponding to the kinase domain), as a probe which specifically hybridized to the genomic DNA fragment encoding OsBRI1. DNA hybridization analysis was performed with the same probe and hybridization conditions as described above.
The present inventors also tested the effects of exogenously applied brassinolide and light on the level of OsBRI1 mRNA. Germinating seeds were placed on 0.9% agar plates with or without 1 μM brassinolide and grown for six days in the light or dark.

d61 mutants = assay: Restoration of dwarfism of d61 mutants by application of brassinolide

For `CC(C)[C@H](C)[C@@H](O)[C@H](O)[C@@H](C)[C@H]1CC[C@H]2[C@@H]3COC(=O)[C@H]4C[C@H](O)[C@H](O)C[C@]4(C)[C@H]3CC[C@]12C` [brassinolide], the “growth of seedlings (coleoptile, foliage leaves)” value [1] was “elongated abnormally”, the root elongation [1] was “inhibited” and the “growth of seedlings (coleoptile, foliage leaves)” value ([1]; listed as BL) was “induced abnormal growth”. For the same compound, the growth of seedlings [2] was “normal growth patterns”, the growth of seedlings ([2]; listed as BL) was “not affected” and the “degree of bending between leaf blade and leaf sheath” value (“degree” for short) (wild type T65 plant) was “even more bent”. For the same compound, the “degree” value ([3]; d61-1 and d61-2 mutants, first leaf, 10^−3 and 10^−2 μg/ml) was “degree of bending increased”, the “degree” value ([3]; d61-2 mutant, 10^−2 μg/ml brassinolide) was “bent at less than a right angle” and the “level of OsBRI1 expression” value (OsBRI1 mRNA) was “reduced level of OsBRI1 expression”. The “restoration of the dwarfism of the d61 mutants” value (d61 mutants) was “could not be achieved”.
